From PMC11504387, “Synthesis and Biological Activity Assessment of 2-Styrylbenzothiazoles as Potential Multifunctional Therapeutic Agents” (Antioxidants, 2024)

What was measured:
[1] = Ferric reducing antioxidant power (FRAP) test; format: biochemical; details: Trolox equivalents; mean ± SD
Description: The FRAP test, based on a colorimetric reaction, can assess the ability of a sample to reduce ferric ions to ferrous ions when complexed with 2,4,6-trispiridyl-s-triazine (TPTZ). The FRAP solution consisted of 0.1 M acetate buffer (pH 3.6), 10 mmol/L of TPTZ in 40 mM HCl and a 20 mM solution of FeCl3, in a 10:1:1 ratio. A 1.9 mL volume of the FRAP solution was incubated with 0.1 mL of the sample solution at 37 °C for 10 min. The absorbance was then read with a UV-Vis spectrophotometer at a wavelength of 593 nm, which corresponds to the maximum absorbance peak of the Fe^2+-TPTZ complex. Trolox® was used as a standard, and ferulic acid was used as positive control, and the results are expressed as µmol TE/g.

[2] = In vitro filtering parameters of O/W sunscreen formulation on PMMA plates; details: 3% in O/W sunscreen formulation
Description: Synthesized compounds were incorporated at 3% concentration in a suitable oil-in-water (O/W) emulsion for cosmetic use as sunscreen.
INCI: Aqua, Glycerin, Xanthan Gum, Phenoxyethanol (and) Ethylhexylglycerin, Tribehenin PEG-20 Esters, Cetearyl Alcohol, Dicaprylyl Carbonate, PPG 26 Buteth-26 (and) PEG 40 Hydrogenated Castor Oil, C12-15 Alkyl Benzoate, Sodium hydroxide (sol. 10%).
A protocol previously reported by us was adopted. Briefly, 32.5 mg of each compound formulation was spread on the rough surface of 5 × 5 cm^2 PMMA plates in the form of small drops of approximately equal mass, in triplicate. The plates were placed in the dark for 15–30 min to allow the formation of a sun-stabilised standard layer and then inserted into the instrument and measured at five different points on each plate (UV transmittance range 290–400 nm). The blank was a plate coated with 32.5 mg glycerine, chosen for its non-fluorescence and UV transparency. In addition, in vitro SPF, UVAPF and ʎc values were calculated according to Equations (2)–(4) above. To evaluate the booster effect of selected synthesized compounds, they were incorporated at 3% concentration in an oil-in-water (O/W) sunscreen formulation with fixed SPF and UVAPf values (30 and 10, respectively).
Aiming to create compounds with diverse biological activities, the synthesized 2-styrylbenzothiazoles were examined for potential applications in sunscreens. Each candidate was incorporated into a standard cosmetic formulation at a concentration of 3% and subjected to photoprotective efficacy testing using the Diffey–Robson method. The formulation comprised an oil-in-water (O/W) emulsion suitable for sunscreen use, with each benzothiazole derivative being heat-solubilized in the oil phase and then dispersed into the emulsion using a turbo emulsifier. The mixture was then cooled, and the emulsion was spread onto polymethylmethacrylate (PMMA) plates before recording the transmittance spectra. The SPF value, UVA protection factor value (UVAPF), the […], and the critical wavelength (λc) were determined from the transmittance spectra using SPF calculator software and are presented in Table 3. These parameters are essential for evaluating the efficacy of potential sunscreen products.

[3] = target: T1, 5-LO in A23187-stimulated human PMNL (Homo sapiens, UniProt P09917); test: 5-Lipoxygenase inhibition in a cell-based assay (PMNL); details: for remaining activity at 10 µM: PMNL, % relative to vehicle (DMSO), read-out: 5-LO Residual Activity (PMNL, 10 µM); for IC50: activated PMNL
T1 construct: Freshly isolated PMNL (1 × 10^6 cells/mL) in PBS buffer pH 7.4; endogenous in cells; host or cells: primary human PMNL (neutrophils) isolated from blood
T1 sequence (P09917 1-674): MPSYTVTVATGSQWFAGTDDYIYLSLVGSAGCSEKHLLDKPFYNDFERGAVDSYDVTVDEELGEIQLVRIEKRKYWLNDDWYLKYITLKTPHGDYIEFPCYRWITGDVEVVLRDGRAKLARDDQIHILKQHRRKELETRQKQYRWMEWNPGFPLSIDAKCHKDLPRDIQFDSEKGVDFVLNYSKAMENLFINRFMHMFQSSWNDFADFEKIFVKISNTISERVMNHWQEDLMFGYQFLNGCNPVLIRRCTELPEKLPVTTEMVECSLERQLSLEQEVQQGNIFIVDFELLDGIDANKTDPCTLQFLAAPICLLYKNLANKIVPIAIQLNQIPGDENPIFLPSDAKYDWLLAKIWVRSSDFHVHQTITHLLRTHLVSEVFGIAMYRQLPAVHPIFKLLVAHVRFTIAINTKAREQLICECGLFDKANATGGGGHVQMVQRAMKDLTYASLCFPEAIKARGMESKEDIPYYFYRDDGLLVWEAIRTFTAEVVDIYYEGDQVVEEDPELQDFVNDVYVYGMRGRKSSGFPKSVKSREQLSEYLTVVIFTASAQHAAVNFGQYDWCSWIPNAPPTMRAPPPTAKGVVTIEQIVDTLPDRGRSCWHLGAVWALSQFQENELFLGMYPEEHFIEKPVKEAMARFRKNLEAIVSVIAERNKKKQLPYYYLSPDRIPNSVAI
Description: Following blood density centrifugation and cell population separation, PMNL was recovered from the pellet after hypotonic lysis of erythrocytes. Freshly isolated PMNL (1 × 10^6 cells/mL) in PBS buffer pH 7.4 with glucose (1 mg/mL) and CaCl2 (1 mM) was pre-incubated with the test compounds for 10 min at 37 °C. Then, 5-lipoxygenase (5-LO) product formation was started by addition of 2.5 μM Ca^2+-ionophore A23187 plus 20 μM arachidonic acid. The reaction was stopped after 10 min at 37 °C with 1 mL of ice-cold methanol containing 200 ng PGB1 as internal standard. Major 5-LO products (LTB4, trans-LTB4, epi-trans-LTB4, and 5-HETE) were extracted by SPE using Sep-Pak C18 35 cc Vac Cartridges (Waters, Milford, MA, USA) and analysed by UPLC-MS/MS as described by Pein et al..

ʎc (critical wavelength) [2] [nm] | remaining activity at 10 µM [3] [%] | IC50 [3] [nM] | Structure (SMILES) | FRAP [1] [µmolTE/g] | SPF [2] | UVA/UVB [2] | UVAPF [2]
389 | 0.79 ± 0.49 | 700 | Oc1ccc(/C=C/c2nc3ccccc3s2)cc1O [BZTst4, (E)-4-(2-(benzo[d]thiazol-2-yl)vinyl)benzene-1,2-diol] | 5673.33 ± 86.42 | 3.87 | 1.47 | 7.65
384 | 74 ± 25.8 | – | COc1ccc(/C=C/c2nc3ccccc3s2)cc1O [BZTst5, (E)-5-(2-(benzo[d]thiazol-2-yl)vinyl)-2-methoxyphenol] | 788.09 ± 14.46 | 2.91 | 0.93 | 2.70
388 | 7.11 ± 4.9 | 950 | COc1cc(/C=C/c2nc3ccccc3s2)ccc1O [BZTst6, (E)-4-(2-(benzo[d]thiazol-2-yl)vinyl)-2-methoxyphenol] | 3262.22 ± 7.86 | 3.43 | 1.96 | 14.13

Continued, compound first:

Structure (SMILES) | ʎc (critical wavelength) [2] [nm] | remaining activity at 10 µM [3] [%] | IC50 [3] [nM] | FRAP [1] [µmolTE/g] | SPF [2] | UVA/UVB [2] | UVAPF [2]
C(=C\c1nc2ccccc2s1)/c1ccccc1 [BZTst1, (E)-2-styrylbenzo[d]thiazole] | 364 | 48.7 ± 10.2 | – | 331.15 ± 6.29 | 13.88 | 0.96 | 7.08
Oc1ccc(/C=C/c2nc3ccccc3s2)cc1 [BZTst2, (E)-4-(2-(benzo[d]thiazol-2-yl)vinyl)phenol] | 384 | 22.9 ± 14.6 | 2900 | 1122.44 ± 25.14 | 2.59 | 1.46 | 5.69
COc1ccc(/C=C/c2nc3ccccc3s2)cc1 [BZTst3, (E)-2-(4-methoxystyryl)benzo[d]thiazole] | 378 | 75.3 ± 19.7 | – | 178.71 ± 8.17 | 2.26 | 1.59 | 3.07
